The source made the active and inactive calls. The rule behind the calls is not given here.
Experiments:
[1] = target: Fibroblast growth factor receptor 2 (Homo sapiens) (UniProt P21802); test: Inhibition of human FGFR2 at 1 uM by Eurofins kinase assay
[2] = target: Tyrosine-protein kinase ZAP-70 (Homo sapiens) (UniProt P43403); test: Inhibition of human ZAP-70 at 1 uM by Eurofins kinase assay
[3] = target: Fibroblast growth factor receptor 4 (Homo sapiens) (UniProt P22455); test: Inhibition of human FGFR4 at 1 uM by Eurofins kinase assay
Fibroblast growth factor receptor 4 (Homo sapiens), sequence (P22455 22-802 limits assumed): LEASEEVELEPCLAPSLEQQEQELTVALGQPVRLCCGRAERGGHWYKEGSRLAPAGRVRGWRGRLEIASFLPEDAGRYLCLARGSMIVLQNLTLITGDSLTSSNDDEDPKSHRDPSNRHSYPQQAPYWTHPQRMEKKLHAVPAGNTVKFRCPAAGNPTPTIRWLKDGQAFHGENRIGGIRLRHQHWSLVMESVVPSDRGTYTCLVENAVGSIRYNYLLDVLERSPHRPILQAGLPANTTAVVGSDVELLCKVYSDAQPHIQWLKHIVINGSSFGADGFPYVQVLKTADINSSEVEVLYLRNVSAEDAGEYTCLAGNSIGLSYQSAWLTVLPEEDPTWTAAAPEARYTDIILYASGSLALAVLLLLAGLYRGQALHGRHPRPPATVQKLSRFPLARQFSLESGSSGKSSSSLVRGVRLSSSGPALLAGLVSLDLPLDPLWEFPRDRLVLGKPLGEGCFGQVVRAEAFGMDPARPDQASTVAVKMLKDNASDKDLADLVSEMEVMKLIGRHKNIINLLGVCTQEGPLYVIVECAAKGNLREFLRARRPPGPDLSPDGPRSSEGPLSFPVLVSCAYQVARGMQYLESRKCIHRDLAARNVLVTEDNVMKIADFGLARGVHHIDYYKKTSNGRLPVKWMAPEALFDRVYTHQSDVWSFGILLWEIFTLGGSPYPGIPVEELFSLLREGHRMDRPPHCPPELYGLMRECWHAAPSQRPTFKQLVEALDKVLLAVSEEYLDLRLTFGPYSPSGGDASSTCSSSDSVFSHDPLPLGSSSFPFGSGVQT

[4] = target: Insulin-like growth factor 1 receptor (Homo sapiens) (UniProt P08069); test: Inhibition of human IGF-1R at 1 uM by Eurofins kinase assay
[5] = target: Tyrosine-protein kinase JAK2 (Homo sapiens) (UniProt O60674); test: Inhibition of human JAK2 at 1 uM by Eurofins kinase assay
[6] = system: MOLM-13; test: Induction of apoptosis in human MOLM-13 cells assessed as necrotic cells at 0.3 uM measured after 48 hrs by annexin-V and PI staining based flow cytometry analysis (reference value: 0.087%); format: functional
[7] = species: Homo sapiens; test: Inhibition of human cSRC at 1 uM by Eurofins kinase assay
[8] = Cmax in Sprague-Dawley rat at 5 mg/kg, iv measured upto 48 hrs by LC-MS/MS analysis; format: ADME, organism-based; conditions: in vivo
[9] = system: MOLM-13; test: Induction of apoptosis in human MOLM-13 cells assessed as necrotic cells at 3 uM measured after 48 hrs by annexin-V and PI staining based flow cytometry analysis (reference value: 0.087%); format: functional
[10] = target: Mitogen-activated protein kinase 8 (Homo sapiens) (UniProt P45983); test: Inhibition of human JNK1 at 1 uM by Eurofins kinase assay
[11] = system: MOLM-13; test: Induction of cell cycle arrest in human MOLM-13 cells assessed as accumulation of cells at S phase at 0.3 uM measured after 48 hrs by PI staining based flow cytometry analysis (reference value: 45.3%); format: functional
[12] = target: Fibroblast growth factor receptor 3 (Homo sapiens) (UniProt P22607); test: Inhibition of human FGFR3 at 1 uM by Eurofins kinase assay
Fibroblast growth factor receptor 3 (Homo sapiens), sequence (P22607 23-806 limits assumed): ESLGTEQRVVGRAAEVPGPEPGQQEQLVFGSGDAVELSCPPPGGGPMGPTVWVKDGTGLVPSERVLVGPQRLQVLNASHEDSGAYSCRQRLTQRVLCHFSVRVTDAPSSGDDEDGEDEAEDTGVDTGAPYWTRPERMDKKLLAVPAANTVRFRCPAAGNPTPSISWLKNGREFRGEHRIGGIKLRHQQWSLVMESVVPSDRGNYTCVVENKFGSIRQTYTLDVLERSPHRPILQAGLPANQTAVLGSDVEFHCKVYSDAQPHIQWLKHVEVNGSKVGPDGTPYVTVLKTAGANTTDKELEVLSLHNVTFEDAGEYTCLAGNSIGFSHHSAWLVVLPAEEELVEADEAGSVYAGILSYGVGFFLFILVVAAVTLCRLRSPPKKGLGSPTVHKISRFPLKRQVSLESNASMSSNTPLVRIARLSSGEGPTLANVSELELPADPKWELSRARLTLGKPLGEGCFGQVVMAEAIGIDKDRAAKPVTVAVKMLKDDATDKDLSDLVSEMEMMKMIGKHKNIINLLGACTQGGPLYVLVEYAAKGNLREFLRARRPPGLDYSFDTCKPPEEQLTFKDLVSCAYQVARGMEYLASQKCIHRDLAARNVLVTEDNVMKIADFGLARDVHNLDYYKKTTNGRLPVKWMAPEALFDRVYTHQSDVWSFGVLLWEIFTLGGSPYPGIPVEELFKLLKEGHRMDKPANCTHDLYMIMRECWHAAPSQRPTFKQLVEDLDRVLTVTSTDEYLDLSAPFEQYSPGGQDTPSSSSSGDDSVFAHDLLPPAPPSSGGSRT

[13] = target: Receptor-type tyrosine-protein kinase FLT3 (Homo sapiens) (UniProt P36888); test: Inhibition of FLT3 phosphorylation in human MOLM-13 cells incubated for 2 hrs by Western blot analysis; format: cell-based; conditions: dose 0.04-5 µM
[14] = target: Platelet-derived growth factor receptor beta (Homo sapiens) (UniProt P09619); test: Inhibition of human PDGFRbeta at 1 uM by Eurofins kinase assay
Platelet-derived growth factor receptor beta (Homo sapiens), sequence (P09619 whole entry): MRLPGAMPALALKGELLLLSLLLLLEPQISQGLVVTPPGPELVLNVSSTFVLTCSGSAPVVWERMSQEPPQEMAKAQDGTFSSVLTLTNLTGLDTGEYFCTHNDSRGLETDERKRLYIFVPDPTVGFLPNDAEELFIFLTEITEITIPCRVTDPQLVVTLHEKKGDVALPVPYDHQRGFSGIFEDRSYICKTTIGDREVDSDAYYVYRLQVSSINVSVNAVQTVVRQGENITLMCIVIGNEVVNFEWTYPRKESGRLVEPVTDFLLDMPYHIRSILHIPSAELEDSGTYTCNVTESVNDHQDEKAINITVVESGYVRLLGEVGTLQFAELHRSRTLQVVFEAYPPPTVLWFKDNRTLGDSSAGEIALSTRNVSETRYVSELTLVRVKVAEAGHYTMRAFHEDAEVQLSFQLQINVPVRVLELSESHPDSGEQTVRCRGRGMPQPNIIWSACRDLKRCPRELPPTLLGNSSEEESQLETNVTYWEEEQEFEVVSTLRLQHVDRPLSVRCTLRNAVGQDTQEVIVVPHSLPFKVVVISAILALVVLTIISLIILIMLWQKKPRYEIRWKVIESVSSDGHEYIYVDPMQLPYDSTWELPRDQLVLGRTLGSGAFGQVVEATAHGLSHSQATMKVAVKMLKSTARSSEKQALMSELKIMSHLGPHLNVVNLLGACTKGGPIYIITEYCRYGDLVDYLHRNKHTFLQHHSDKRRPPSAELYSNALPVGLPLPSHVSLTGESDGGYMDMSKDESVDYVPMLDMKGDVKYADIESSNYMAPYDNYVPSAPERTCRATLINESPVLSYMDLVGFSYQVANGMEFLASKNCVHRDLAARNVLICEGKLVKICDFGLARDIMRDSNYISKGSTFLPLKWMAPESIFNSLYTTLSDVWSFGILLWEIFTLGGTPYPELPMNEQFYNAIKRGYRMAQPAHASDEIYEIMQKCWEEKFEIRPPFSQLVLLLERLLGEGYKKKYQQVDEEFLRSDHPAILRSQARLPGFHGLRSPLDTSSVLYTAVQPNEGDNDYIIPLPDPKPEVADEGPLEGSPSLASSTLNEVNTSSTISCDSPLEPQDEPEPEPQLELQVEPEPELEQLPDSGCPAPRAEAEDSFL

[15] = AUC (0 to infinity) in Sprague-Dawley rat at 20 mg/kg, po measured upto 48 hrs by LC-MS/MS analysis; format: ADME, organism-based; conditions: in vivo
[16] = system: SBC-5; test: Antiproliferative activity against human SBC-5 cells assessed as inhibition of cell growth measured after 72 hrs by Celltiter-glo luminescent cell viability assay; format: functional, cell-based; conditions: SBC-5, 72 h
[17] = system: MOLM-13; test: Induction of apoptosis in human MOLM-13 cells assessed as early apoptotic cells at 3 uM measured after 48 hrs by annexin-V and PI staining based flow cytometry analysis (reference value: 8.92%); format: functional
[18] = target: Inhibitor of nuclear factor kappa-B kinase subunit beta (Homo sapiens) (UniProt O14920); test: Inhibition of human IKKB at 1 uM by Eurofins kinase assay
[19] = target: T1, Vascular endothelial growth factor receptor 1 (Homo sapiens, UniProt P17948); test: Inhibition of FLT (unknown origin) preincubated for 10 mins followed by addition of peptide solution by caliper mobility shift assay
T1 sequence (P17948 whole entry): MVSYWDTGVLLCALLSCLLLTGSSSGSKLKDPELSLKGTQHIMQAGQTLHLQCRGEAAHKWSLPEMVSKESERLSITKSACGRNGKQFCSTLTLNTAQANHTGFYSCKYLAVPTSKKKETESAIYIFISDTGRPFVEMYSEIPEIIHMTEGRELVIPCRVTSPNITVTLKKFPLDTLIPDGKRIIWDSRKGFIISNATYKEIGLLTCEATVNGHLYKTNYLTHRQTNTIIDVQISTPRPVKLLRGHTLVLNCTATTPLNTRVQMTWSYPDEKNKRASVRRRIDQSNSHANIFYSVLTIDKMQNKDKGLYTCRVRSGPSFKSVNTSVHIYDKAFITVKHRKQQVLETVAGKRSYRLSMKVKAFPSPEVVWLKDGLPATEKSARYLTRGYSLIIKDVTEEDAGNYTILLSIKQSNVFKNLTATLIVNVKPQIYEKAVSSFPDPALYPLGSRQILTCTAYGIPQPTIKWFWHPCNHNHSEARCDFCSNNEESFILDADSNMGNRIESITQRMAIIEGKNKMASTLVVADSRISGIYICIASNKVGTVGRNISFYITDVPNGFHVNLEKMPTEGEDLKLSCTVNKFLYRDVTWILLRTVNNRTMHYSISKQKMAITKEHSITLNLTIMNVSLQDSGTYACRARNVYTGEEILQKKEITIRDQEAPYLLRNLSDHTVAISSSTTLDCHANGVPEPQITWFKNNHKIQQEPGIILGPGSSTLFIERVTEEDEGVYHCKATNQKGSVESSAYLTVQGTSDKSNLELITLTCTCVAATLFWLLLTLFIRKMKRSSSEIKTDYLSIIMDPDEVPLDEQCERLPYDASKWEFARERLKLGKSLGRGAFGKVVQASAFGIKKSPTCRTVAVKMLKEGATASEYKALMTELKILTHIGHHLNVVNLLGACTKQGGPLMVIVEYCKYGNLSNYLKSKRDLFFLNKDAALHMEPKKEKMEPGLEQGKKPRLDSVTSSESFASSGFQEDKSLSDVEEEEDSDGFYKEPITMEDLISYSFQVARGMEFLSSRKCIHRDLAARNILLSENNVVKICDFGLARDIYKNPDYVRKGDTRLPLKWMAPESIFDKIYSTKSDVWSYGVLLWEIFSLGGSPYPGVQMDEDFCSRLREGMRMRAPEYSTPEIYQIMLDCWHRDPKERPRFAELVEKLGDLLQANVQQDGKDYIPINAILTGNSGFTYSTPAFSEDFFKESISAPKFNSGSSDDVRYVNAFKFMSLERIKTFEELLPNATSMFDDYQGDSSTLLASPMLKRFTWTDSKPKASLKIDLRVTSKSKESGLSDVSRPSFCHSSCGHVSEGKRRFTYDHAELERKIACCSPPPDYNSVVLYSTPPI

[20] = AUC (0 to infinity) in Sprague-Dawley rat at 5 mg/kg, iv measured upto 48 hrs by LC-MS/MS analysis; format: ADME, organism-based; conditions: in vivo
[21] = species: Homo sapiens; test: Inhibition of human CDK1/cyclinB at 1 uM by Eurofins kinase assay
[22] = Tmax in Sprague-Dawley rat at 5 mg/kg, iv measured upto 48 hrs by LC-MS/MS analysis; format: ADME, organism-based; conditions: in vivo
[23] = system: MOLM-13; test: Induction of cell cycle arrest in human MOLM-13 cells assessed as accumulation of cells at G1 phase at 3 uM measured after 48 hrs by PI staining based flow cytometry analysis (reference value: 42.8%); format: functional
[24] = system: MOLM-13; test: Antiproliferative activity against human MOLM-13 cells assessed as inhibition of cell growth measured after 72 hrs by Celltiter-glo luminescent cell viability assay; format: functional, cell-based; conditions: MOLM-13, 72 h
[25] = target: Serine/threonine-protein kinase WNK1 (Homo sapiens) (UniProt Q9H4A3); test: Inhibition of human WNK1 at 1 uM by Eurofins kinase assay
[26] = target: Epidermal growth factor receptor (Homo sapiens) (UniProt P00533); test: Inhibition of human EGFR at 1 uM by Eurofins kinase assay
[27] = Half life in Sprague-Dawley rat at 5 mg/kg, iv measured upto 48 hrs by LC-MS/MS analysis; format: ADME, organism-based; conditions: in vivo
[28] = system: THP-1; test: Antiproliferative activity against human THP-1 cells harbouring wild type FLT3 assessed as inhibition of cell growth measured after 72 hrs by Celltiter-glo luminescent cell viability assay; format: functional, cell-based; conditions: THP-1, 72 h
[29] = Volume of distribution in Sprague-Dawley rat at 5 mg/kg, iv measured upto 48 hrs by LC-MS/MS analysis; format: ADME, organism-based; conditions: in vivo
[30] = target: Vascular endothelial growth factor receptor 2 (Homo sapiens, UniProt P35968); test: Inhibition of human KDR at 1 uM by Eurofins kinase assay
[31] = system: MOLM-13; test: Induction of cell cycle arrest in human MOLM-13 cells assessed as accumulation of cells at G2 phase at 1 uM measured after 48 hrs by PI staining based flow cytometry analysis (reference value: 12.5%); format: functional
[32] = Toxicity in female NSG mouse assessed as effect on body weight loss at 20 to 40 mg/kg, po measured after 21 days; format: organism-based; conditions: in vivo, 504 h, dose 20-40 mg/kg, time 21 day
[33] = system: MOLM-13; test: Induction of apoptosis in human MOLM-13 cells assessed as viable cells at 0.3 uM measured after 48 hrs by annexin-V and PI staining based flow cytometry analysis (reference value: 88.7%); format: functional; conditions: read-out: Activity
[34] = system: HL-60; test: Antiproliferative activity against human HL-60 cells harbouring wild type FLT3 assessed as inhibition of cell growth measured after 72 hrs by Celltiter-glo luminescent cell viability assay; format: functional, cell-based; conditions: HL-60, 72 h
[35] = target: T1, Vascular endothelial growth factor receptor 1; test: Inhibition of human FLT assessed as residual activity at 1 uM by Eurofins kinase assay relative to control
[36] = system: MV4-11; test: Antiproliferative activity against human MV4-11 cells assessed as inhibition of cell growth measured after 72 hrs by Celltiter-glo luminescent cell viability assay; format: functional, cell-based; conditions: MV4-11, 72 h
[37] = system: MOLM-13; test: Inhibition of STAT5 phosphorylation in human MOLM-13 cells incubated for 2 hrs by Western blot analysis; format: cell-based; conditions: dose 0.04-5 µM
[38] = system: MOLM-13; test: Induction of apoptosis in human MOLM-13 cells assessed as late apoptotic cells at 0.3 uM measured after 48 hrs by annexin-V and PI staining based flow cytometry analysis (reference value: 2.28%); format: functional
[39] = target: Tyrosine-protein kinase ABL1 (Homo sapiens) (UniProt P00519); test: Inhibition of human ABL1 at 1 uM by Eurofins kinase assay

Fibroblast growth factor receptor 2 (Homo sapiens), sequence (P21802 22-821 limits assumed): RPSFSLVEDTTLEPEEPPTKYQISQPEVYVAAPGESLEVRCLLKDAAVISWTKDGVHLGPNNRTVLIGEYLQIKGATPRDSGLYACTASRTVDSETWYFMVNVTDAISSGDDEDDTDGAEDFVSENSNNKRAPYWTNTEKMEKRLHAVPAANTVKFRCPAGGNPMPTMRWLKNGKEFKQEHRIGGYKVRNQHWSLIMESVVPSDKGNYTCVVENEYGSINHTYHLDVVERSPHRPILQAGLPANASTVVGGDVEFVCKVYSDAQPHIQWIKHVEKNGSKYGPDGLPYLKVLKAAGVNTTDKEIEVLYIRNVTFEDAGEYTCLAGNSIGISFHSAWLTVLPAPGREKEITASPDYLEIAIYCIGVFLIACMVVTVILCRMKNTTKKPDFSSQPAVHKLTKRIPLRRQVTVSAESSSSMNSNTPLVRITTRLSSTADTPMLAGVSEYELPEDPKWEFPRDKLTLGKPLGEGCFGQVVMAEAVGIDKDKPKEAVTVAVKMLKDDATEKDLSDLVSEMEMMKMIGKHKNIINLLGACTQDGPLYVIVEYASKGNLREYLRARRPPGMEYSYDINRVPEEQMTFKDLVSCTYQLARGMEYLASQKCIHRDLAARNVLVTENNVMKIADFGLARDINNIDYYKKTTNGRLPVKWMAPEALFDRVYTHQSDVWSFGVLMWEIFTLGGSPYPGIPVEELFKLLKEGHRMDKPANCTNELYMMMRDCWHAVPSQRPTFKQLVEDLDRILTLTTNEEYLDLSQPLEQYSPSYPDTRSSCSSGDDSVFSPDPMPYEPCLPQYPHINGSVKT

With O=C(Nc1ccc(Oc2ccnc(NC(=O)N3CC(O)C3)c2)c(F)c1)c1cn(-c2cccnc2)nn1 the inhibition [1] was “inactive”, the inhibition [2] was “inactive” and the inhibition [3] was “inactive”. For the same molecule, the inhibition [4] was “inactive”, the inhibition [5] was “inactive” and the Activity [6] was 0.063%. The inhibition [7] was “inactive”, the Cmax [8] was 26900 ng/mL and the Activity [9] was 0.097%. The inhibition [10] was “inactive”, the Activity [11] was 14% and the inhibition [12] was “inactive”. The inhibition [13] was “Dose-dependent-effect”, the inhibition [14] was “inactive” and the AUC(0-inf) [15] was 46100 ng·h/mL. For the same molecule, the IC50 [16] was greater than 30000 nM, the Activity [17] was 38.4% and the inhibition [18] was “inactive”. The IC50 [19] was 588 nM, the AUC(0-inf) [20] was 59400 ng·h/mL and the inhibition [21] was “inactive”. It also gave a Tmax [22] of 1.8 min, an Activity [23] of 89.9% and an IC50 [24] of 62 nM. For the same molecule, the inhibition [25] was “inactive”, the inhibition [26] was “inactive” and the half-life [27] was 2.46 h. The IC50 [28] was 10800 nM, the Vd [29] was 0.301 L/kg and the inhibition [30] was “inactive”. The Activity [31] was 4.33%, the Activity [32] was “Non-toxic” and the viability at 0.3 µM [33] was 68.4%. The IC50 [34] was 7700 nM, the Activity [35] was 22% and the IC50 [36] was 130 nM. The inhibition [37] was “Dose-dependent-effect”, the Activity [38] was 6.54% and the inhibition [39] was “inactive”.

— ChEMBL document CHEMBL6074715, “Discovery of pyridine-based derivatives as FLT3 inhibitors for the treatment of acute myeloid leukemia” (Eur J Med Chem, 2025)
